In brackets after ≈: the same amount, converted by molar mass.
How the values were obtained:
MRSA (USA300) = experiment: microbe, parasite or virus in culture; format: cell-based, Staphylococcus aureus; conditions: aerobic, 37° C., at least 18 hours
Method: (§1) Method: The minimum inhibitory concentration (MIC) of the compounds and control drugs, linezolid (antibiotic), vancomycin (antibiotic), 5-fluorocytosine (5-FC, antifungal drug), and fluconazole (antifungal drug) was determined using the broth microdilution method according to the guidelines outlined by the Clinical and Laboratory Standards Institute (CLSI) against clinically relevant bacterial (methicillin-resistant Staphylococcus aureus (MRSA), vancomycin-resistant Enterococcus faecalis (VRE), vancomycin-resistant Enterococcus faecium (VRE), Clostridioides difficile and Escherichia coli) and fungal (Candida albicans) strains. A solution equivalent to 0.5 McFarland standard was prepared from each strain and diluted in cation-adjusted Mueller-Hinton broth (for S. aureus and E. coli), tryptone soy broth (for E. faecalis), or brain heart infusion broth (for E. faecium) to achieve a bacterial inoculum of about 5×10^5 CFU/mL. C. difficile strains were cultured in brain heart infusion broth supplemented with hemin and vitamin K. C. albicans was diluted in RPMI medium supplemented with 3-(N-morpholino) propanesulfonic acid to achieve a fungal concentration of about 1.5×10^3 CFU/mL. Compounds and control drugs were added in the first row of the 96-well plates and diluted with media containing bacteria (to achieve a concentration gradient ranging from 128 to 1 μg/mL). For MRSA, VRE, and E. coli strains, plates were then incubated aerobically at 37° C. for at least 18 hours. C. albicans was incubated aerobically at 37° C. for 24 hours. Plates containing C. difficile were incubated anaerobically at […] for 48 hours.

E. faecalis (VRE) = experiment: microbe, parasite or virus in culture; format: cell-based, Enterococcus faecalis; conditions: aerobic, 37° C., at least 18 hours
Method: as §1

Clostridioides difficile = experiment: MIC by broth microdilution against Clostridioides difficile (Table 1); format: cell-based; conditions: anaerobic, 48 hours; strain BAA-1870
Method: as §1

E. coli (TolC mutant) = experiment: MIC by broth microdilution against E. coli (TolC mutant); format: cell-based, Escherichia coli; conditions: for MIC E. coli (TolC mutant): aerobic, 37° C., at least 18 hours
Method: as §1

[1] = system: hypervirulent Clostridioides difficile strains; experiment: MIC against hypervirulent Clostridioides difficile strains; format: cell-based
Method: (§2) The antibacterial activity of compounds 48, 50, 51, 61 and 85 against a panel of Clostridioides difficile strains was evaluated. A bacterial solution equivalent to 0.5 McFarland standard was prepared and diluted in brain heart infusion broth supplemented with hemin and vitamin K. Compounds and control drugs were added in the first row of 96-well plates and serially diluted with media containing bacteria (to achieve a concentration gradient ranging from 128 to 1 μg/mL). Plates were then incubated anaerobically at […] for 48 hours.

[2] = system: clinically important Clostridioides difficile strains; experiment: MIC against clinically important Clostridioides difficile strains; format: cell-based
Method: as §2

L. gasseri = experiment: MIC against human normal gut microbiota: L. gasseri; format: cell-based, Lactobacillus gasseri; conditions: L. gasseri HM 407
Source text: (§3) The activity of the selected lactones against the human gut microbiota was also examined. Microbiota interfere with C. difficile's ability to colonize the gastrointestinal tract and subsequently cause infection. Many antibiotics inhibit/kill the endogenous microflora, which permits enhanced colonization by C. difficile and infection. Three different bacterial species that are present in the gut microflora were used in this experiment; Bifidobacterium (anaerobic Gram-positive bacteria), Bacteroides (anaerobic Gram-negative bacteria) and Lactobacillus (microaerophilic Gram-positive bacteria). Ideal compounds/drugs are those with selective antibacterial activity against C. difficile so as to protect the indigenous microflora present in the GI tract from being damaged/killed (which will exacerbate infections caused by C. difficile).
(§4) Bifidobacterium and Bacteroides were first grown for 48 hours at 37° C., anaerobically, using brain heart infusion supplemented (BHIS) agar (brain heart infusion agar supplemented with hemin, vitamin K and L-cysteine). Lactobacillus was cultivated on MRS agar and incubated in the presence of 5% CO2 for 48 hours at 37° C. Each bacterium was suspended in phosphate-buffered saline (PBS) to achieve 0.5 McFarland standard and subsequently diluted in brain heart infusion supplemented broth (for Bifidobacterium and Bacteroides) or in MRS broth (for Lactobacillus) to achieve a bacterial inoculum of approximately 5×10^5 CFU/mL. Bacteria were then seeded in 96-well plates containing serial dilutions of the compounds and incubated for 48 hours. MICs reported in Table 4 are the minimum concentration of compound/control drug that inhibited the visual growth of bacteria.

L. casei = experiment: MIC against human normal gut microbiota: L. casei; format: cell-based, Lactobacillus casei; conditions: L. casei HM 334
Source text: as §3, §4

L. reuteri = experiment: MIC against human normal gut microbiota: L. reuteri; format: cell-based, Lactobacillus reuteri; conditions: L. reuteri HM 120
Source text: as §3, §4

L. crispatus = experiment: MIC against human normal gut microbiota: L. crispatus; format: cell-based, Lactobacillus crispatus
Source text: as §3, §4

Ba. fragilis = experiment: MIC against human normal gut microbiota: Bacteroides fragilis; format: cell-based
Source text: as §3, §4

Ba. dorsei = experiment: MIC against human normal gut microbiota: Bacteroides dorsei; format: cell-based
Source text: as §3, §4

Bi. breve = experiment: MIC against human normal gut microbiota: Bifidobacterium breve; format: cell-based; conditions: Bi. breve HM 856
Source text: as §3, §4

Bi. longum = experiment: MIC against human normal gut microbiota: Bifidobacterium longum; format: cell-based; conditions: Bi. longum HM 848
Source text: as §3, §4

C. albicans = experiment: Broth microdilution against Candida albicans; format: cell-based; conditions: gradient 128 to 1 μg/mL, 24 hours
Method: as §1

E. faecium = experiment: Broth microdilution against vancomycin-resistant E. faecium; format: cell-based, Enterococcus faecium; conditions: gradient 128 to 1 μg/mL
Method: as §1

## C=C1C(=O)O[C@H](c2c(OC)cc(OC)cc2OC)[C@@H]1c1ccc(C(F)(F)F)cc1 (racemic) [Compound 61]
MRSA (USA300)
  MIC MRSA (USA300): >128 µg/mL
E. faecalis (VRE)
  MIC E. faecalis (VRE): >128 µg/mL
Clostridioides difficile
  MIC Clostridioides difficile: 8 µg/mL (≈ 19.6 µM)
E. coli (TolC mutant)
  MIC E. coli (TolC mutant): >128 µg/mL
[1]; CD strain 81
  MIC: 16 µg/mL (≈ 39.2 µM)
[1]; CD strain 82
  MIC: 16 µg/mL (≈ 39.2 µM)
[1]; CD strain 83
  MIC: 64 µg/mL (≈ 157 µM)
[1]; CD strain 84
  MIC: 64 µg/mL (≈ 157 µM)
[1]; CD strain 85
  MIC: 64 µg/mL (≈ 157 µM)
[1]; CD strain 86
  MIC: 32 µg/mL (≈ 78.4 µM)
[1]; CD strain 87
  MIC: 8 µg/mL (≈ 19.6 µM)
[1]; CD strain 90
  MIC: 16 µg/mL (≈ 39.2 µM)
[1]; CD strain 49279
  MIC: 64 µg/mL (≈ 157 µM)
[1]; CD strain 49287
  MIC: 8 µg/mL (≈ 19.6 µM)
[1]; CD strain 49291
  MIC: 8 µg/mL (≈ 19.6 µM)
[2]; CD strain 16
  MIC: 16 µg/mL (≈ 39.2 µM)
[2]; CD strain 18
  MIC: 2 µg/mL (≈ 4.9 µM)
[2]; CD strain 19
  MIC: 8 µg/mL (≈ 19.6 µM)
[2]; CD strain 1801
  MIC: 16 µg/mL (≈ 39.2 µM)
[2]; CD strain 43255
  MIC: 4 µg/mL (≈ 9.79 µM)
[2]; CD strain P6
  MIC: 8 µg/mL (≈ 19.6 µM)
[2]; CD strain P7
  MIC: 8 µg/mL (≈ 19.6 µM)
[2]; CD strain P13
  MIC: 8 µg/mL (≈ 19.6 µM)
[2]; CD strain P19
  MIC: 8 µg/mL (≈ 19.6 µM)
L. gasseri
  MIC: >128 µg/mL
L. casei
  MIC: >128 µg/mL
L. reuteri
  MIC: >128 µg/mL
L. crispatus; L. crispatus HM 375
  MIC: >128 µg/mL
L. crispatus; L. crispatus HM 421
  MIC: >128 µg/mL
Ba. fragilis; Ba. fragilis HM 709
  MIC: >128 µg/mL
Ba. fragilis; Ba. fragilis HM 710
  MIC: >128 µg/mL
Ba. fragilis; Ba. fragilis HM 711
  MIC: >128 µg/mL
Ba. fragilis; Ba. fragilis HM 714
  MIC: >128 µg/mL
Ba. dorsei; Ba. dorsei HM 29
  MIC: >128 µg/mL
Ba. dorsei; Ba. dorsei HM 717
  MIC: >128 µg/mL
Bi. breve
  MIC: >128 µg/mL
Bi. longum
  MIC: >128 µg/mL
C. albicans
  activity against C. albicans: inactive
E. faecium
  inhibition of the tested strains of E. faecium: did not inhibit

## C=C1C(=O)O[C@H](c2ccc(OCc3ccccc3)c(OC(C)=O)c2)[C@@H]1c1ccccc1Br (racemic) [Compound 85]
MRSA (USA300)
  MIC MRSA (USA300): >128 µg/mL
E. faecalis (VRE)
  MIC E. faecalis (VRE): >128 µg/mL
Clostridioides difficile
  MIC Clostridioides difficile: 4 µg/mL (≈ 8.11 µM)
E. coli (TolC mutant)
  MIC E. coli (TolC mutant): >128 µg/mL
[1]; CD strain 81
  MIC: 4 µg/mL (≈ 8.11 µM)
[1]; CD strain 82
  MIC: 2 µg/mL (≈ 4.05 µM)
[1]; CD strain 83
  MIC: 4 µg/mL (≈ 8.11 µM)
[1]; CD strain 84
  MIC: 4 µg/mL (≈ 8.11 µM)
[1]; CD strain 85
  MIC: 2 µg/mL (≈ 4.05 µM)
[1]; CD strain 86
  MIC: 4 µg/mL (≈ 8.11 µM)
[1]; CD strain 87
  MIC: 2 µg/mL (≈ 4.05 µM)
[1]; CD strain 90
  MIC: 2 µg/mL (≈ 4.05 µM)
[1]; CD strain 49279
  MIC: 4 µg/mL (≈ 8.11 µM)
[1]; CD strain 49287
  MIC: 2 µg/mL (≈ 4.05 µM)
[1]; CD strain 49291
  MIC: 2 µg/mL (≈ 4.05 µM)
[2]; CD strain 16
  MIC: 4 µg/mL (≈ 8.11 µM)
[2]; CD strain 18
  MIC: 4 µg/mL (≈ 8.11 µM)
[2]; CD strain 19
  MIC: 4 µg/mL (≈ 8.11 µM)
[2]; CD strain 1801
  MIC: 2 µg/mL (≈ 4.05 µM)
[2]; CD strain 43255
  MIC: 4 µg/mL (≈ 8.11 µM)
[2]; CD strain P6
  MIC: 4 µg/mL (≈ 8.11 µM)
[2]; CD strain P7
  MIC: 4 µg/mL (≈ 8.11 µM)
[2]; CD strain P13
  MIC: 4 µg/mL (≈ 8.11 µM)
[2]; CD strain P19
  MIC: 2 µg/mL (≈ 4.05 µM)
L. gasseri
  MIC: >128 µg/mL
L. casei
  MIC: >128 µg/mL
L. reuteri
  MIC: >128 µg/mL
L. crispatus; L. crispatus HM 375
  MIC: >128 µg/mL
L. crispatus; L. crispatus HM 421
  MIC: >128 µg/mL
Ba. fragilis; Ba. fragilis HM 709
  MIC: >128 µg/mL
Ba. fragilis; Ba. fragilis HM 710
  MIC: >128 µg/mL
Ba. fragilis; Ba. fragilis HM 711
  MIC: >128 µg/mL
Ba. fragilis; Ba. fragilis HM 714
  MIC: >128 µg/mL
Ba. dorsei; Ba. dorsei HM 29
  MIC: >128 µg/mL
Ba. dorsei; Ba. dorsei HM 717
  MIC: >128 µg/mL
Bi. breve
  MIC: >128 µg/mL
Bi. longum
  MIC: >128 µg/mL
C. albicans
  activity against C. albicans: inactive
E. faecium
  inhibition of the tested strains of E. faecium: did not inhibit

## CC(=O)NC[C@H]1CN(c2ccc(N3CCOCC3)c(F)c2)C(=O)O1 [Linezolid, reference compound]
MRSA (USA300); Staphylococcus aureus, read-out: MIC MRSA (USA300)
  MIC: 1 µg/mL (≈ 2.96 µM)
E. faecalis (VRE); Enterococcus faecalis, VRE
  MIC: 1 µg/mL (≈ 2.96 µM)
E. coli (TolC mutant); Escherichia coli, 18 h, read-out: MIC E. coli (TolC mutant)
  MIC: 16 µg/mL (≈ 47.4 µM)

From US20250195490A1, “ALPHA-METHYLENE AND AMINOMETHYL LACTONES AND LACTAMS FOR TREATMENT OF CLOSTRIDIOIDES DIFFICILE INFECTION (CDI)” (Purdue Research Foundation, priority 2022, published 2025)
